Data taken from the supplement of paper PMC11451515.

Tests used:
P12-Ichikawa [1] = experiment: AUC of viability dose-response curve (% viability x log10 dose units); higher = less sensitive; conditions: 48 h
Procedure, shortened: (§1)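 Seeding of medium-adapted leukemia cells was at 500 or 1000 cells/well in 1536-well plates, followed by 48 h at 37°C with library compounds in DMSO at 11 threefold doses from 47 μM to 0.79 nM. CellTiter-Glo One luminescence was normalised per plate to DMSO and cell-free wells and fitted as a four-parameter log-logistic function of log10 dose. Area under the curve was integrated by trapezoidal rule, with curves exceeding full viability scaled and curves failing quality control removed.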

NOMO1 = experiment: as above; conditions: 48 h
Procedure, shortened: as §1

SEM cells = experiment: as above; conditions: 48 h
Procedure, shortened: as §1

P12-Ichikawa [2] = experiment: cell viability relative to DMSO control; higher = less cytotoxic; conditions: HPLM + 10% dialyzed FBS, 48 h
Procedure, shortened: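 Viability values are per-plate percentages of DMSO wells, with background from cell-free wells. Library compounds in DMSO were pin-dosed, in an 11-point threefold series from 47 μM to 0.79 nM, onto NOMO1 or SEM (500 cells/well) or P12-Ichikawa (1000 cells/well) leukemia cells in 1536-well plates (5 μl). Those cells had been adapted for at least four passages in each medium, and CellTiter-Glo One luminescence was read after 48 h at 37°C.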

[3] = RPMI 5 mM glucose + 10% dialyzed FBS

Clc1ccccc1C(c1ccccc1)(c1ccccc1)n1cccn1
AUC of viability dose-response curve (P12-Ichikawa [1]; HPLM + 10% dialyzed FBS): 470 | AUC of viability dose-response curve (P12-Ichikawa [1]; RPMI 5 mM glucose + 10% FBS): 462 | AUC of viability dose-response curve (P12-Ichikawa [1]; [3]): 470 | AUC of viability dose-response curve (NOMO1; HPLM + 10% dialyzed FBS): 454 | AUC of viability dose-response curve (NOMO1; RPMI 5 mM glucose + 10% FBS): 445 | AUC of viability dose-response curve (NOMO1; [3]): 457 | AUC of viability dose-response curve (SEM cells; HPLM + 10% dialyzed FBS): 467 | AUC of viability dose-response curve (SEM cells; RPMI 5 mM glucose + 10% FBS): 456 | AUC of viability dose-response curve (SEM cells; [3]): 425 | cell viability (P12-Ichikawa [2]; 0.000781 µM): 123% | cell viability (P12-Ichikawa [2]; 0.00234 µM): 134% | cell viability (P12-Ichikawa [2]; 0.00702 µM): 119% | cell viability (P12-Ichikawa [2]; 0.0211 µM): 129% | cell viability (P12-Ichikawa [2]; 0.0632 µM): 125% | cell viability (P12-Ichikawa [2]; 0.19 µM): 130% | cell viability (P12-Ichikawa [2]; 0.569 µM): 122% | cell viability (P12-Ichikawa [2]; 1.71 µM): 126% | cell viability (P12-Ichikawa [2]; 5.12 µM): 128% | cell viability (P12-Ichikawa [2]; 15.4 µM): 116% | cell viability (P12-Ichikawa [2]; 46.1 µM): 114%
